# Data: PubChem BioAssay AID463199 (Broad Institute, 2010)
# The source made the active and inactive calls.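 The calls were made as follows: active = AC50, the dose giving half-maximal effect, exceeds a fixed cutoff for a compound that rescues yeast growth under heat; inactive = the rest, inconclusive results apart.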
# Tested on: S. cerevisiae Burl-1 ts mutant growth, BacTiter-Glo, 38.5C 24 h
# Assay: growth induction of Burl-1 ts yeast mutant, dose response, counter-screen for SUMOylation pathway inhibitor project, whole organism, S. cerevisiae, luminescence (AID 463199)
row,Structure (SMILES),AC50
1,COc1ccc(NC(=O)c2ccc(-n3cncn3)c([N+](=O)[O-])c2)cc1,> 21 µM (inactive)
2,CCc1ccc(S(=O)(=O)NCc2cccnc2)cc1,> 42 µM (inactive)
3,NC(=O)C1=C[C@@H](c2ccc(Br)cc2)C[C@@H](OCCCCO)O1,> 42 µM (inactive)
4,Cc1cnc(NC(=O)CSc2nc3ccccc3s2)s1,> 42 µM (inactive)
5,Cc1nnsc1C(=O)N1CCC(CO)(Cc2ccccc2Cl)CC1,> 42 µM (inactive)
6,Cc1cc(C(F)(F)F)nc(SCC(=O)Nc2cc(C)on2)n1,> 42 µM (inactive)
7,CC1CC(N(C(=O)c2ccccc2Cl)c2ccccc2)c2ccccc2N1 (stereo not given),> 42 µM (inactive)
8,Cc1cccc(NC(=S)NC(=O)/C=C/c2ccco2)c1,> 42 µM (inactive)
9,Cc1ccccc1-c1nnc(SCc2ccc(F)cc2)o1,> 42 µM (inactive)
10,CCCCCC(=O)Nc1nnn(CCC)n1,> 42 µM (inactive)
11,COc1ccc2cc(C(=O)Nc3ccc(Cl)cc3)sc(=O)c2c1OC,> 42 µM (inactive)
12,O=C1C2C(c3ccccc3)CC=CC2[C@H](c2ccc3ccccc3c2)N1Cc1ccccc1 (stereo not given in full),> 42 µM (inactive)
13,CCOc1ccccc1NC(=O)c1ccc2c(c1)C(=O)N(CC(C)C)C2=O,> 42 µM (inactive)
14,CCN(CC)CCCN(Cc1cc2cc(OC)ccc2[nH]c1=O)C(=O)Nc1ccc(F)cc1,> 42 µM (inactive)
15,O=C1C2CCCCN2C(=O)N1CCCCN1CCN(c2ccccc2Oc2ccccc2)CC1 (stereo not given),> 42 µM (inactive)
16,CCOc1ccc(N(C(=O)C2CCCO2)C2C=CS(=O)(=O)C2)cc1 (stereo not given),> 42 µM (inactive)
17,CC(C)C1OC2(C)OC(=N)C1(C#N)C(C#N)(C#N)C2c1ccccc1 (stereo not given),> 42 µM (inactive)
18,Cc1ccc(N/N=C2/CCCNC2=O)cc1,> 42 µM (inactive)
19,Nc1ccc(C2(c3ccc(N)cc3)OC(=O)c3ccccc32)cc1,> 42 µM (inactive)
20,CCCCn1c(/C=N/Nc2nc3ccccc3[nH]2)nc2ccccc21,> 42 µM (inactive)
